Experimental data from patent publication US20230404996A1, “APPLICATION OF ISOQUINOLINE COMPOUND IN TUMOR TREATMENT” (NANJIANG SHIJIANG MEDICINE TECHNOLOGY CO., LTD, priority 2020, published 2023).
Structures can show the parent of a compound that is named as a salt. Where two headings read alike, the source gives them in different places.

Tests used:
D341 Med = assay: Cell viability (CellTiter-Glo) IC50 on brain tumor cell lines; assay type: cell-based; details: 72 h, 3 days of culture, read-out: Inhibitory effect on brain tumor cell line (IC50)
Description: (§1) The inhibitory effect of isoquinoline compounds on various brain tumor cell lines was detected using cell activity detection reagents.
(§2) Cell viability was detected using the Promega CeliTiter-Glo kit, the kit reflected cell viability by directly measuring intracellular ATP content. In this experiment, the IC50 values of isoquinoline compounds on various brain tumor cell lines was determined.
(§3) Brain tumor cells were cultured in 10% FBS-containing medium (+p/s), and incubated for 3 h or the following day, the gradient diluted isoquinoline compound was added. After 3 days of culture, the relevant IC50 (50% inhibiting concentration) was measured. The name, source and culture conditions of each brain tumor cell line were as follows: • Cell line D341 Med (ATCC, No. HTB-187) was cultured in 20% fetal bovine serum-containing EMEM medium (+P/S). • Cell line Kelly (ECACC, No. 92110411) was cultured in RPMI1640 medium containing 10% fetal bovine serum and 2 mM glutamine; • Cell line NB-I (ATCC, No. HTB-131) was cultured in 10% fetal bovine serum-containing Leibovitz's L-15 medium (+P/S).

NB-1 = assay: as above; assay type: cell-based; details: Homo sapiens, NB1, 72 h; NB-1, 3 days of culture; read-out: Inhibitory effect on brain tumor cell line (IC50)
Description: as §1, §2, §3

Kelly = assay: as above; assay type: cell-based; details: 72 h, 3 days of culture, read-out: Inhibitory effect on brain tumor cell line (IC50)
Description: as §1, §2, §3

SF-126 = assay: Cell viability (CellTiter-Glo) IC50 on tumor cell lines; assay type: cell-based; details: Homo sapiens, 72 h; SF-126, 3 days of culture; read-out: Inhibitory effect on cell line (IC50)
Description: (§4) The inhibitory effect of isoquinoline compounds on various tumor cell lines was detected using cell activity detection reagent.
(§5) Cell viability was detected using the Promega CellTiter-Glo kit, the kit reflected cell viability by directly measuring intracellular ATP content. In this experiment, the IC50 values of isoquinoline compounds on various tumor cell lines was determined.
(§6) Tumor cells were cultured in 10% FBS-containing medium (+p/s), and incubated for 3 h or the following day, then the gradient diluted isoquinoline compound was added. After 3 days of culture, the relevant IC50 (50% inhibiting concentration) was measured. The name, source and culture conditions of each tumor cell line were as follows: • Cell line NCI-H82 (ATCC, No. HTB-175) was cultured in 10% fetal bovine serum-containing RPMI1640 medium (+P/S). • Cell line G-401 (ATCC, No. CRL-1441) was cultured in 10% fetal bovine serum-containing McCoy's 5a medium (+P/S). • Cell line MDA-MB-453 (ATCC, No. HTB-131) was cultured in 10% fetal bovine serum-containing Leibovit's L-15 medium (+P/S). • Cell line SW48 (ATCC, No. CCL-231) was cultured in 10% fetal bovine serum-containing Leibovitz's L-15 medium (+P/S). • Cell line CFPAC-1 (ATCC, No. CRL-1918) was cultured in 10% fetal bovine serum-containing IMDM medium (+P/S). • Cell line 786-O (ATCC, No. CRL-1932) was cultured in 10% fetal bovine serum-containing RPMI1640 medium (+P/S). • Cell line GB-I (JCRB, No. IFO50489) was cultured in 10% fetal bovine serum-containing DMEM medium (+P/S). • Cell line SF126 (JCRB, No. IFO50286) was cultured in 10% fetal bovine serum-containing EMEM medium (+P/S).

SW48 = assay: as above; assay type: cell-based; details: Homo sapiens, 72 h; SW48, 3 days of culture; read-out: Inhibitory effect on cell line (IC50)
Description: as §4, §5, §6

G-401 = assay: as above; assay type: cell-based; details: Homo sapiens, 72 h; G-401, 3 days of culture; read-out: Inhibitory effect on cell line (IC50)
Description: as §4, §5, §6

CFPAC-1 = assay: as above; assay type: cell-based; details: Homo sapiens, 72 h; CFPAC-1, 3 days of culture; read-out: Inhibitory effect on cell line (IC50)
Description: as §4, §5, §6

MDA-MB-453 = assay: as above; assay type: cell-based; details: Homo sapiens, 72 h; MDA-MB-453, 3 days of culture; read-out: Inhibitory effect on cell line (IC50)
Description: as §4, §5, §6

786-O = assay: as above; assay type: cell-based; details: Homo sapiens, 786-0, 72 h, 3 days of culture, read-out: Inhibitory effect on cell line (IC50)
Description: as §4, §5, §6

GB-1 = assay: as above; assay type: cell-based; details: Homo sapiens, 72 h; GB-1, 3 days of culture; read-out: Inhibitory effect on cell line (IC50)
Description: as §4, §5, §6

[1] = tested on: NCI-H82 cell with knockdown of DNMT1 expression (sh-DNMT1 #1, sh-DNMT1 #2); assay: Sensitivity of NCI-H82 cell after knockdown of DNMT1 expression (intracellular ATP detection); assay type: cell-based, human; details: DNMT1 expression knocked down (sh-DNMT1 #1 or #2), compared with Vector; FIG. 11
From the text: (§7) The NCI-H82 cell overexpressing NNMT protein was obtained by inserting the NNMT gene into NCI-1-182 cell using a viral vector. The expression of DNMT1 in NCI-H82 cells was knocked down using shRNA transfection. The changes in sensitivity of cell to isoquinoline compounds was investigated using intracellular ATP detection methods after overexpression of NNMT protein and/or knockdown of DNMT1 expression. The experiment result was shown in FIG. 11, wherein, “Vector” referred to NCI-1182 cell transfected with empty virus as control group.

[2] = tested on: NCI-H82 cell overexpressing NNMT protein (ov-NNMT); assay: Sensitivity of NCI-H82 cell after overexpression of NNMT protein (intracellular ATP detection); assay type: cell-based, human; details: NNMT protein overexpressed alone (ov-NNMT), compared with Vector; FIG. 11
From the text: as §7

[3] = tested on: NCI-H82 cell ov-NNMT/sh-DNMT1 #1 and ov-NNMT/sh-DNMT1 #2; assay: Sensitivity of NCI-H82 cell after overexpression of NNMT and knockdown of DNMT1 (intracellular ATP detection); assay type: cell-based, human; details: NNMT overexpressed and DNMT1 knocked down simultaneously; FIG. 11
From the text: as §7

[4] = tested on: NCI-H82 ov-NNMT/sh-DNMT1 tumor; assay: Inhibitory effect on subcutaneous NCI-H82 ov-NNMT/sh-DNMT1 tumor in nude mice; assay type: in vivo; details: nude mice inoculated with ov-NNMT/sh-DNMT1, intraperitoneally 10 mg/kg/day, compared with NCI-H82 tumor; FIG. 15
From the text: (§8) To verify whether the cells sensitive to isoquinoline compounds still maintained the sensitivity to isoquinoline compounds in vivo, inhibitory effect of berberine hydrochloride on tumor-bearing mice subcutaneously inoculated with sensitive cells (NCI-H82) was detected.
(§9) 5×10^6 of normal NCI-H82 cells, NCI-H82 cells with overexpression of NNMT protein and […] of DNMT1 (i.e. ov-NNMT/sh-DNMT1, the method for overexpressing NNMT protein and knocking down DNMT1 expression was shown in Example 13) were subcutaneously inoculated in nude mice to establish tumor-bearing mice. Each group of tumor-bearing mice was injected intraperitoneally with the berberine hydrochloride at a dose of 10 mg/kg/day, the change of tumor volume size over time was measured, and the tumors were removed and photographed in each group of mice at the end of the experiment to investigate the inhibitory effect of berberine hydrochloride on the tumor. The mice in control group was injected intraperitoneally with solvent vehicle in the same method, and the tumor volume was calculated as follows: tumor volume=½ length×width^2.

NCI-H82 tumor = assay: Inhibitory effect on subcutaneous NCI-H82 tumor in nude mice; assay type: in vivo; details: nude mice inoculated with NCI-H82, intraperitoneally 10 mg/kg/day; FIG. 14
From the text: as §8, §9

NCI-H82 = assay: Cell viability (CellTiter-Glo) IC50 on tumor cell lines; assay type: cell-based, human; details: NCI-H82, 3 days of culture, read-out: Inhibitory effect on cell line (IC50)
Description: as §4, §5, §6

Row | SMILES | IC50 (D341 Med) [nM] | IC50 (NB-1) [nM] | IC50 (Kelly) [nM] | IC50 (SF-126) [nM] | IC50 (SW48) [nM] | IC50 (G-401) [nM] | IC50 (CFPAC-1) [nM] | IC50 (MDA-MB-453) [nM] | IC50 (786-O) [nM] | IC50 (GB-1) [nM] | Sensitivity of NCI-H82 cell to the compound [1] | Sensitivity of NCI-H82 cell to the compound [2] | Sensitivity of NCI-H82 tumor cells to the compound [3] | Inhibitory effect on subcutaneous tumor (tumor volume) [4] | Inhibitory effect on subcutaneous tumor (tumor volume) (NCI-H82 tumor) | IC50 (NCI-H82; Homo sapiens, 72 h) [nM] | IC50 (NCI-H82) [nM]
1 | COc1ccc2cc3[n+](cc2c1OC)CCc1cc2c(cc1-3)OCO2 [Berberine hydrochloride, reference compound] | 4500 | 1700 | 4100 | 21300 | 1260 | 1120 | 9500 | 940 | 15300 | 19600 | decreased | decreased | decreased more significantly | significantly weaker | significantly inhibit | 510 | –
2 | COc1ccc2cc3[n+](cc2c1OCC(=O)OC(C)(C)C)CCc1cc2c(cc1-3)OCO2 [Compound BBR-A5] | 1500 | 300 | 1800 | 15500 | 1800 | 1100 | 17700 | 700 | 18500 | 9200 | – | – | – | – | – | 500 | –
3 | Cc1c2[n+](cc3cc4c(cc13)OCO4)CCc1cc3c(cc1-2)OCO3 [worenine] | 4800 | 2600 | 3900 | > 30000 | 9600 | 2300 | > 30000 | 1300 | > 30000 | > 30000 | – | – | – | – | – | 4300 | –
4 | C=CCOc1c(OC)ccc2cc3[n+](cc12)CCc1cc2c(cc1-3)OCO2 [Compound BBR-A2] | 1700 | 600 | 2100 | 22600 | 3200 | 1600 | 14900 | 1300 | 37100 | 11200 | – | – | – | – | – | 700 | –
5 | c1c2c(cc3c1OCO3)-c1cc3ccc4c(c3c[n+]1CC2)OCO4 [Coptisine hydrochloride] | 2800 | 2500 | 4400 | > 30000 | 6000 | 3400 | 22100 | 1600 | > 30000 | 24800 | – | – | – | – | – | – | 1800
6 | CCCOc1c(OC)ccc2cc3[n+](cc12)CCc1cc2c(cc1-3)OCO2 [Compound BBR-A1] | 1000 | 300 | 1300 | 7500 | 200 | 1000 | 8300 | 800 | 16300 | 9100 | – | – | – | – | – | 400 | –
